The values below come from patent US11160790B2, “Method of inhibiting Cryptococcus growth using eltrombopag” (priority 2019, dated 2021).

The subject of this assay is C. neoformans H99. Kind of assay: Disk diffusion susceptibility assay. It counts as cell-based, Cryptococcus neoformans. Particulars: 10 μg per disk; 25° C., 30° C. or 37° C., 48 hours. On the procedure:
A disk diffusion susceptibility assay was performed to further investigate the fungistatic activity of eltrombopag at different temperatures. Briefly, C. neoformans […] or C. deuterogattii 8265 was cultured overnight at 30° C., and 100 μL of the culture (at an OD600 of about 0.1) was spread on RPMI 1640 agar plates. Paper disks (with a diameter of 6 mm) were then placed on these agar plates, and either 10 μg eltrombopag (dissolved in 5 μL DMSO) or 5 μL DMSO (control) was added to each disk. The agar plates were incubated at 25° C., 30° C., or 37° C. for 48 hours and photographed.
A general note: In agar diffusion tests the substance spreads into inoculated agar from a disc or well.

`CC1=NN(c2ccc(C)c(C)c2)C(=O)/C1=N\Nc1cccc(-c2cccc(C(=O)O)c2)c1O` [eltrombopag]: the inhibition zones entry is “significantly larger inhibition zones were observed at 37 °C”.
